Article PMC6891444, “Immune Checkpoint PD-1/PD-L1 CTLA-4/CD80 are Blocked by Rhus verniciflua Stokes and its Active Compounds” (Molecules, 2019)

What was measured:
[1] = molecular target: T1, CTLA-4/CD80 interaction (Homo sapiens, UniProt P16410); assay: CTLA-4/CD80 competitive ELISA (Inhibitor Screening Assay Kit); type: binding; details: mean of three independent replicates, read-out: IC50, CTLA-4/CD80 blocking effect
T1 construct: purchased BPS Bioscience #71149 (CTLA-4); #71114 (biotinylated CD80)
T1 sequence (P16410 37-162 limits assumed): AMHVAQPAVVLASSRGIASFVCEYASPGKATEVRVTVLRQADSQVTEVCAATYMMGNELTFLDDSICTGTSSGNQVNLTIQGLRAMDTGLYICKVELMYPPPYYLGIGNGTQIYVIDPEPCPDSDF
Procedure: Competitive ELSIA was performed using a PD–1/PD-L1 or CTLA-4/CD80 Inhibitor Screening Assay Kit, according to the supplier’s instructions. An aliquot of 1 μg/mL recombinant human PD-L1 (BPS Bioscience, #71104) or CTLA-4 (BPS Bioscience, #71149) were coated onto a 96-well plate overnight. Plates were washed with phosphate-buffered saline (PBS) containing 0.1% Tween (PBS-T), blocked for 1 h at room temperature with PBS-T containing 2% (w/v) bovine serum albumen, and washed again. After washing, vehicle or test samples were added, and the reaction continued for 1 h. As a positive control, PD-L1 inhibitor C1 or anti-CTLA-4 neutralizing antibody were used. Biotinylated hPD–1 (BPS Bioscience, #71109) or biotinylated hCD80 (BPS Bioscience, #71114) was added to each well, and plates were incubated for 2 h at room temperature. After three washes with PBS-T, diluted streptavidin-horseradish peroxidase (HRP) was added to each well, and plates were reacted for 1 h while shaking at low speed. After the reaction, plates were washed three times with PBS-T, and HRP substrates A and B were added. Relative chemiluminescence was measured on a SpectraMax L Luminometer (Molecular Devices, San Jose, California, USA) and expressed as the relative binding activity. The results were normalized to the relative percentage of the vehicle control group. Half-maximal inhibitory concentration (IC50) was calculated using Prism “log[inhibitor] vs. normalized response” equation.

[2] = molecular target: T2, PD-1/PD-L1 interaction (Homo sapiens, UniProt Q9NZQ7); assay: PD-1/PD-L1 competitive ELISA (Inhibitor Screening Assay Kit); type: binding; details: mean of three independent replicates, read-out: IC50, PD-1/PD-L1 blocking effect
T2 construct: purchased BPS Bioscience #71104 (PD-L1); #71109 (biotinylated PD-1)
Procedure: Competitive ELSIA was performed using a PD–1/PD-L1 or CTLA-4/CD80 Inhibitor Screening Assay Kit, according to the supplier’s instructions. An aliquot of 1 μg/mL recombinant human PD-L1 (BPS Bioscience, #71104) or CTLA-4 (BPS Bioscience, #71149) were coated onto a 96-well plate overnight. Plates were washed with phosphate-buffered saline (PBS) containing 0.1% Tween (PBS-T), blocked for 1 h at room temperature with PBS-T containing 2% (w/v) bovine serum albumen, and washed again. After washing, vehicle or test samples were added, and the reaction continued for 1 h. As a positive control, PD-L1 inhibitor C1 or anti-CTLA-4 neutralizing antibody were used. Biotinylated hPD–1 (BPS Bioscience, #71109) or biotinylated hCD80 (BPS Bioscience, #71114) was added to each well, and plates were incubated for 2 h at room temperature. After three washes with PBS-T, diluted streptavidin-horseradish peroxidase (HRP) was added to each well, and plates were reacted for 1 h while shaking at low speed. After the reaction, plates were washed three times with PBS-T, and HRP substrates A and B were added. Relative chemiluminescence was measured on a SpectraMax L Luminometer (Molecular Devices, San Jose, California, USA) and expressed as the relative binding activity. The results were normalized to the relative percentage of the vehicle control group. Half-maximal inhibitory concentration (IC50) was calculated using Prism “log[inhibitor] vs. normalized response” equation. All results are presented as the mean of three independent biological replicates. * p < 0.05, ** p < 0.01, *** p < 0.001, compared with the vehicle control group.

T2 sequence (Q9NZQ7 19-239 limits assumed): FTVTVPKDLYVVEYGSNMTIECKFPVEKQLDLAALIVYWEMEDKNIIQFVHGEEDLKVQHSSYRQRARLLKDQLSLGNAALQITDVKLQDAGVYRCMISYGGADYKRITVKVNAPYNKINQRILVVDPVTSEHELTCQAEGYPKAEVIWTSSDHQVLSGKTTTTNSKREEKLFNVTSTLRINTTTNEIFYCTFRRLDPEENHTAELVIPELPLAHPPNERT

Row | IC50 [1] | IC50 [2] | SMILES
1 | 10 µM |  | O=C(O)/C=C/c1ccc(O)c(O)c1 [Compound 19, caffeic acid]
2 | 4.51 µM |  | O=C(O)c1ccc(O)c(O)c1 [Compound 2, protocatechuic acid]
3 |  | 0.04 µM | O=c1c(O)c(-c2ccc(O)c(O)c2)oc2cc(O)ccc12 [Compound 9, fisetin]
4 |  | 5.71 µM | O=c1c(O)c(-c2ccc(O)c(O)c2)oc2cc(O)cc(O)c12 [Compound 18, quercetin]
5 | 35.5 µM |  | O=C1c2c(O)cc(O)cc2OC(c2ccc(O)c(O)c2)C1O (stereo not shown) [Compound 5, taxifolin]
6 |  | 0.04 µM | O=C1C[C@@H](c2ccc(O)c(O)c2)Oc2cc(O)cc(O)c21 [Compound 7, eriodictyol]

Row | SMILES | IC50 [1] | IC50 [2]
7 | O=C1C[C@@H](c2ccc(O)cc2)Oc2cc(O)ccc21 [Compound 13, liquiritigenin] |  | 11.8 µM
